21 molecules from patent US9914736B2, “TrKA kinase inhibitors, compositions and methods thereof” (Merck Sharp & Dohme Corp., priority 2014, dated 2018) can be followed below.

The structures appear in SMILES notation.

Sequence of human TrkA receptor (P04629 33-796): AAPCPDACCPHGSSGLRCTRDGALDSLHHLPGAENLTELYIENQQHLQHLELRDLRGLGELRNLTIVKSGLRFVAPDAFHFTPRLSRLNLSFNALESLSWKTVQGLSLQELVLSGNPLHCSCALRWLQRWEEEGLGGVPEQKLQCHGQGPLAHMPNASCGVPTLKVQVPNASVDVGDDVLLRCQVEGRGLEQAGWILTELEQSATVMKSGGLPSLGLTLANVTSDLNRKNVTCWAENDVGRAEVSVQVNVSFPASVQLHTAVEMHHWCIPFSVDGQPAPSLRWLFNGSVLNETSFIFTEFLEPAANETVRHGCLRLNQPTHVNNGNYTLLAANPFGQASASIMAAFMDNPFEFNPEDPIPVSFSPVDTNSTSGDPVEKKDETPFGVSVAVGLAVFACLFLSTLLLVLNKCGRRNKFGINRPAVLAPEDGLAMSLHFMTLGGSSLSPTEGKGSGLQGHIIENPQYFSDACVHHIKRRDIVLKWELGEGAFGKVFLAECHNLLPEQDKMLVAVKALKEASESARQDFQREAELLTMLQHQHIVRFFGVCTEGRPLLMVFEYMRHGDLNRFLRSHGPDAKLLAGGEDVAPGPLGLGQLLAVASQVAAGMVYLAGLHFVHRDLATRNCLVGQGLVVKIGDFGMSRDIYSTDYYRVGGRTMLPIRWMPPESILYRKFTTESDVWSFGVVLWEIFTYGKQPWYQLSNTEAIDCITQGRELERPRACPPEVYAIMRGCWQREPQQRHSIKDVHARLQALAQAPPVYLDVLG

The test addresses human TrkA receptor (Homo sapiens (Human), UniProt P04629). Description: DiscoverX PathHunter TrkA functional assay. It counts as cell-based. The settings on record: U2OS cells expressing human TrkA-ProLink, Shc1-EA and p75NTR; compound 1 h, then NGF at ~80% of maximal response for 3 h; luminescence.
Experimental: TrkA functional activity was measured using a DiscoverX PathHunter assay. In this assay, U2OS cells express the human TrkA receptor as a fusion with the weakly complementing fragment of B-galactosidase, which DiscoverX calls “Prolink (PK)”; additionally, Shc1 is fused with a larger fragment, which is called “Enzyme Acceptor (EA)”. Activation of the TrkA receptor, upon NGF addition, results in the kinase domain being phosphorylated, resulting in subsequent recruitment of Shc1-EA protein. That recruitment results in an active B-galactosidase enzyme that is detected by addition of a chemiluminescent substrate. The human p75^NTR protein was also expressed as a co-receptor for NGF.
All reagents were purchased from DiscoverX, except for the receptor agonists (NGF, BDNF, NT3) which were purchased from Peprotech. Cells were expanded and frozen into cryovials, and stored in the vapor phase of liquid nitrogen, and thawed immediately before use. Thawed cells were added to a 384-well plate at 7500 cells/well, and allowed to incubate overnight. Compound at various concentrations was added the following morning and allowed to incubate on cells for 1 h. Then, NGF was added at a concentration sufficient to elicit ˜80% of a maximal response and allowed to incubate for 3 h at ambient temperature. DiscoverX PathHunter detection reagent was then added and the plate was further incubated for 1 h in the dark. The plate was then read via luminescence on the Perkin Elmer Envision.
What is called IC50 is the point on the concentration scale where inhibition reaches its midpoint. Read a high IC50 as weaker potency. In turn, `Cc1cc(-n2nc(C(=O)NCc3cncnc3)cc2NC(=O)c2ccc(C(F)(F)F)c(-c3ccn(C)n3)c2)[nH]n1` [Compound 83, 5′-methyl-5-(3-(1-methyl-1H-pyrazol-3-yl)-4-(trifluoromethyl)benzamido)-N-(pyrimidin-5-ylmethyl)-2′H-[1,3′-bipyrazole]-3-carboxamide] returned an IC50 of 1.6 nM.
`O=C(Nc1cc(-c2ccc(CCO)cc2)nn1-c1ccc(F)cc1)c1cc(-c2ncccn2)c(C(F)(F)F)cc1F` [Compound 101, 2-fluoro-N-(1-(4-fluorophenyl)-3-(4-(2-hydroxyethyl)phenyl)-1H pyrazol-5-yl)-5-(pyrimidin-2-yl)-4-(trifluoromethyl)benzamide] registered an IC50 of 3.4 nM.
As to `O=C(Nc1cc(-c2ccncc2)nn1-c1ccc(F)cc1)c1ccc(C(F)(F)F)c(-c2ncns2)c1` [Compound 26, N-[1-(4-fluorophenyl)-3-pyridin-4-yl-1H-pyrazol-5-yl]-3-(1,2,4-thiadiazol-5-yl)-4-(trifluoromethyl)benzamide], the IC50 was found to be 350 nM. Compared with the last molecule, the IC50 is about 100-fold higher.
`Cn1ccc(-c2cc(C(=O)Nc3cc(Cc4nnnn4C)nn3-c3ccc(F)cc3)c(F)cc2C(F)(F)F)n1` [Compound 102, 2-fluoro-N-(1-(4-fluorophenyl)-3-((1-methyl-1H-tetrazol-5-yl)methyl)-1H-pyrazol-5-yl)-5-(1-methyl-1H-pyrazol-3-yl)-4-(trifluoromethyl)benzamide]: the IC50 was 0.4 nM.
The same measure for `Cc1nc(NC(=O)c2ccc(C(F)(F)F)c(-c3ccn(C)n3)c2)n(-c2ccccc2)n1` [Compound 15, N-(3-methyl-1-phenyl-1H-1,2,4-triazol-5-yl)-3-(1-methyl-1H-pyrazol-3-yl)-4-(trifluoromethyl)benzamide]: 150 nM; for `CCn1ccc(-c2cc(C(=O)Nc3cc(C)nn3-c3ccc(F)cc3)ccc2C(F)(F)F)n1` [Compound 75, 3-(1-ethyl-1H-pyrazol-3-yl)-N-[1-(4-fluorophenyl)-3-methyl-1H-pyrazol-5-yl]-4-(trifluoromethyl)benzamide]: 89 nM; for `NCc1cccc(-c2cc(NC(=O)c3cc(-c4ncccn4)c(C(F)(F)F)cc3F)n(-c3ccc(F)cc3)n2)c1` [Compound 103, N-(3-(3-(aminomethyl)phenyl)-1-(4-fluorophenyl)-1H-pyrazol-5-yl)-2-fluoro-5-(pyrimidin-2-yl)-4-(trifluoromethyl)benzamide]: 2.4 nM.
The molecule `O=C(Nc1cc(-c2ccc(=O)[nH]n2)nn1-c1ccccc1)c1ccc(C(F)(F)F)cc1Cl` [Compound 10, 2-chloro-N-[3-(6-oxo-1,6-dihydropyridazin-3-yl)-1-phenyl-1H-pyrazol-5-yl]-4-(trifluoromethyl)benzamide] returned an IC50 of 290 nM.
The molecule `Cc1csc(-c2cc(C(=O)Nc3cc(-c4ccncc4)nn3-c3ccccc3)ccc2Cl)n1` [Compound 21, 4-chloro-3-(4-methyl-1,3-thiazol-2-yl)-N-(1-phenyl-3-pyridin-4-yl-1H-pyrazol-5-yl)benzamide] yielded an IC50 of 2.7 nM.
In the case of `O=C(Nc1cc(CO)nn1-c1ccc(F)cc1)c1cc(-c2ncccn2)c(C(F)(F)F)cc1F` [Compound 97, 2-fluoro-N-(1-(4-fluorophenyl)-3-(hydroxymethyl)-1H-pyrazol-5-yl)-5-(pyrimidin-2-yl)-4-(trifluoromethyl)benzamide], the IC50 was 14 nM.
`Cn1ccc(-c2cc(C(=O)Nc3cc(-c4ccccc4)nn3C)ccc2C(F)(F)F)n1` [Compound 20, N-(1-methyl-3-phenyl-1H-pyrazol-5-yl)-3-(1-methyl-1H-pyrazol-3-yl)-4-(trifluoromethyl)benzamide]: the IC50 is 1400 nM.
`Cn1ccc(-c2cc(C(=O)Nc3cc(Cc4ccc[nH]c4=O)nn3-c3ccc(F)cc3)ccc2C(F)(F)F)n1` [Compound 98, N-(1-(4-fluorophenyl)-3-((2-oxo-1,2-dihydropyridin-3-yl)methyl)-1H-pyrazol-5-yl)-3-(1-methyl-1H-pyrazol-3-yl)-4-(trifluoromethyl)benzamide] showed an IC50 of 3.8 nM.
The molecule `NC(=O)c1ccc(-c2cc(NC(=O)c3cc(-c4ncccn4)c(C(F)(F)F)cc3F)n(-c3ccc(F)cc3)n2)cc1` [Compound 81, N-[3-(4-carbamoylphenyl)-1-(4-fluorophenyl)-1H-pyrazol-5-yl]-2-fluoro-5-pyrimidin-2-yl-4-(trifluoromethyl)benzamide] had an IC50 of 0.76 nM.
Turning to `Cn1ccc(-c2cc(C(=O)Nc3cc(Cc4nnn(C)n4)nn3-c3ccc(F)cc3)c(F)cc2C(F)(F)F)n1` [Compound 85, 2-fluoro-N-(1-(4-fluorophenyl)-3-((2-methyl-2H-tetrazol-5-yl)methyl)-1H-pyrazol-5-yl)-5-(1-methyl-1H-pyrazol-3-yl)-4-(trifluoromethyl)benzamide], the IC50 was found to be 1.2 nM.
Molecule `Cn1ccc(-c2cc(C(=O)Nc3c(-c4ccccc4)nc4n3CCC4)ccc2C(F)(F)F)n1` [Compound 79, 3-(1-methyl-1H-pyrazol-3-yl)-N-(2-phenyl-6,7-dihydro-5H-pyrrolo[1,2-a]imidazol-3-yl)-4-(trifluoromethyl)benzamide] showed an IC50 of 44 nM. Against the preceding molecule, the IC50 is about 37-fold higher.
For the molecule `Cn1ccc(-c2cc(C(=O)Nc3cc(Cc4cc[nH]n4)nn3-c3ccc(F)cc3)ccc2C(F)(F)F)n1` [Compound 96, N-(3-((1H-pyrazol-3-yl)methyl)-1-(4-fluorophenyl)-1H-pyrazol-5-yl)-3-(1-methyl-1H-pyrazol-3-yl)-4-(trifluoromethyl)benzamide], the IC50 worked out at 3.7 nM. This IC50 lies about 12-fold lower than the previous one.
As for `Cn1ccc(-c2cc(C(=O)Nc3cc(Cc4cncnc4)nn3-c3ccc(F)cc3)ccc2C(F)(F)F)n1` [Compound 95, N-(1-(4-fluorophenyl)-3-(pyrimidin-5-ylmethyl)-1H-pyrazol-5-yl)-3-(1-methyl-1H-pyrazol-3-yl)-4-(trifluoromethyl)benzamide], the IC50 was determined as 1.4 nM.
Take `O=C(Nc1cc(-c2ccncc2)nn1-c1ccc(F)cc1)c1ccc(C(F)(F)F)c(-c2cccnc2)c1` [Compound 35, N-[1-(4-fluorophenyl)-3-pyridin-4-yl-1H-pyrazol-5-yl]-3-pyridin-3-yl-4-(trifluoromethyl)benzamide]: the IC50 turned out to be 1700 nM.
The molecule `Cc1c(-c2cnn(C)c2)nn(-c2ccccc2)c1NC(=O)c1ccc(C(F)(F)F)c(-c2ccn(C)n2)c1` [Compound 44, N-(1′,4-dimethyl-1-phenyl-1H,1′H-3,4′-bipyrazol-5-yl)-3-(1-methyl-1H-pyrazol-3-yl)-4-(trifluoromethyl)benzamide] yielded an IC50 of 11 nM. Compared with the last molecule, the IC50 is about 150-fold lower.
In turn, `Cn1ccc(-c2cc(C(=O)Nc3cc(Cc4nnnn4C)nn3-c3ccccc3)c(Cl)cc2C(F)(F)F)n1` [Compound 59, 2-chloro-5-(1-methyl-1H-pyrazol-3-yl)-N-{3-[(1-methyl-1H-tetrazol-5-yl)methyl]-1-phenyl-1H-pyrazol-5-yl}-4-(trifluoromethyl)benzamide] had an IC50 of 1.7 nM.
Regarding `O=C(Nc1cc(-c2ccncc2)nn1-c1cc(C(F)(F)F)n[nH]1)c1ccc(Cl)c(-c2cc[nH]n2)c1` [Compound 41, 4-chloro-3-(1H-pyrazol-3-yl)-N-[3-pyridin-4-yl-5′-(trifluoromethyl)-2′H-1,3′-bipyrazol-5-yl]benzamide], the IC50 was found to be 240 nM.
